We go through 51 compounds from ChEMBL document CHEMBL2007661, “Compounds: GSK PKIS; Assays: UNC Frye lab” (2012).

Assay [1] has as its target T1, Inhibitor of nuclear factor kappa-B kinase subunit alpha (Homo sapiens) (UniProt O15111).
T1 sequence (whole entry): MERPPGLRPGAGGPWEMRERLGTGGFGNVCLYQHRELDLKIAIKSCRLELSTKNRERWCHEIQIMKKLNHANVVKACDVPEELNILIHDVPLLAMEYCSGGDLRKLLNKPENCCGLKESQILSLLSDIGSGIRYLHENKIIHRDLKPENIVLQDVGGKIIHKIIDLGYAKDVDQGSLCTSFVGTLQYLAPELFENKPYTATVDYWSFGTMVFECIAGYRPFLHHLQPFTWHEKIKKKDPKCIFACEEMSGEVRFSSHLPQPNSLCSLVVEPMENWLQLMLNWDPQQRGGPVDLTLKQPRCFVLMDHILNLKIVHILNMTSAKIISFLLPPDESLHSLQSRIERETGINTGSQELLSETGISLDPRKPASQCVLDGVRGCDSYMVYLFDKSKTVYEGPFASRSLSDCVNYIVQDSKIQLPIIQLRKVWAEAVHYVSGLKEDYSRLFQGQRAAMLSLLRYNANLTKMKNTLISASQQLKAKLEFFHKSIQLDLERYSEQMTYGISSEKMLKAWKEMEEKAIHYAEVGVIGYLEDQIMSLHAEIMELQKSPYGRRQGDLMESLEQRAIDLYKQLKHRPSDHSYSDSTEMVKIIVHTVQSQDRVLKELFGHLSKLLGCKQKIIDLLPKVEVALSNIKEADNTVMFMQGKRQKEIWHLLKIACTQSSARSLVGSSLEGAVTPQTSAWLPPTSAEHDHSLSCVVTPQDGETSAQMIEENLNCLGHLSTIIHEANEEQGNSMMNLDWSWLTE
Conditions: at 1 µM.

The target in assay [2] is T2, Serine/threonine-protein kinase TBK1 (Homo sapiens) (UniProt Q9UHD2).
T2 sequence (whole entry): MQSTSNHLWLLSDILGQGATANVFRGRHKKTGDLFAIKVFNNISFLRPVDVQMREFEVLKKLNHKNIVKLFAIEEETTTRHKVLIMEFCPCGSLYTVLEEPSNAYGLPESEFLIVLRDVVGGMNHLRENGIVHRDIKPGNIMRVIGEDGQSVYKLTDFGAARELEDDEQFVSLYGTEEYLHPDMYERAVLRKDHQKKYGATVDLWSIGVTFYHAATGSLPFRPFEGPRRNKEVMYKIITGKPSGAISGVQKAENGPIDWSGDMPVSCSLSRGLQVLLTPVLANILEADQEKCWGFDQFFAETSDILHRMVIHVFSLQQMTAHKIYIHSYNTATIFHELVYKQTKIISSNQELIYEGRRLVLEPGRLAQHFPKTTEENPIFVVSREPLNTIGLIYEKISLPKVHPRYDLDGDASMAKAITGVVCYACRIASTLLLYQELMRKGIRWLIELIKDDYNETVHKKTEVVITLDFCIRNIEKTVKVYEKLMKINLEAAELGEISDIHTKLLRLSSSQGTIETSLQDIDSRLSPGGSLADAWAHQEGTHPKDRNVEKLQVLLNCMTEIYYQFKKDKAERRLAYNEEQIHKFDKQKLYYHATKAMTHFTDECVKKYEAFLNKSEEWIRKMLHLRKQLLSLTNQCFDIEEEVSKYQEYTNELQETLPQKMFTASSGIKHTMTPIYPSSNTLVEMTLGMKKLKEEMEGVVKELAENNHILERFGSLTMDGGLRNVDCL
Particulars: at 1 µM.

Several values for one entry are separate records, joined by “and”; a condition that tells them apart may be missing. Identical values can stand only once.

As usually defined, the inhibition is the change of the read-out against control, counted positive when it falls. Regarding `CN1CCN(CCCNc2nc3ccc(Oc4ccc(NC(=O)Nc5cc(C(F)(F)F)ccc5F)cc4)cc3[nH]2)CC1`, the inhibition worked out at 4% in assay [1] and 0% in assay [2].

In the case of `CCOc1ccc2c(-c3ccnc(Nc4cccc(C(F)(F)F)c4)n3)cnn2n1`, the inhibition in assay [1] was 1%; in assay [2], 55% and 52%.

Take `CCn1c(-c2nonc2N)nc2c(C#CC(C)(C)O)nc(O[C@@H](CN)c3ccccc3)cc21`: the inhibition in assay [1] is 17% and 19%; in assay [2], 85% and 87%.

In the case of `O=C1NC(=O)C(c2cccc(Cl)c2)=C1Nc1ccc(O)c(Cl)c1`, the inhibition is 3% and 4% in assay [1]; 58% and 55% in assay [2].

Turning to `CCCNc1cccc(-n2ncc3c(N/N=C/c4ccncc4)ncnc32)c1`, the inhibition is 4% in assay [1] and 18% in assay [2].

Regarding `COc1cccc(COc2cc(-n3cnc4ccccc43)sc2C(N)=O)c1`, the inhibition in assay [1] is 4% and 3%; in assay [2] it was 2% and 0%.

`COc1cc2ncn(-c3cc(OCc4cccs4)c(C(N)=O)s3)c2cc1OC`: the inhibition in assay [1] is 5% and 3%; in assay [2] it was 35% and 33%.

Turning to `COc1ccccc1Nc1ncc(-c2ccccc2)o1`, the inhibition in assay [1] was -1% and 3%; in assay [2] it was 10% and 5%.

With `O=C1Nc2ccc(C(=O)c3ccco3)cc2C1=Cc1cc(Cl)c(O)c(Cl)c1`, the inhibition in assay [1] is 5% and 4%; in assay [2], 86% and 87%.

For the compound `CS(=O)(=O)CCNCc1cc(-c2cc3c(Nc4ccc(OCc5cccc(F)c5)c(Cl)c4)ncnc3s2)cs1`, the inhibition in assay [1] was 16% and 15%; in assay [2], 0%.

As to `Cc1cc(O)cc(C)c1/C=C/c1cncc(C(N)=O)c1`, the inhibition in assay [1] is 4% and 0%; in assay [2] it was -3% and -6%.

`CC(=O)Nc1cccc(C#Cc2cncnc2Nc2ccc(OCc3cccc(F)c3)c(Cl)c2)c1`: the inhibition was -6% in assay [1]; -6% and -7% in assay [2].

For the compound `N#Cc1ccc(Oc2nccc(-c3c(-c4ccc(F)cc4)ncn3C3CCNCC3)n2)cc1`, the inhibition was -2% and -1% in assay [1]; 8% and 3% in assay [2].

As to `NS(=O)(=O)c1ccc(NC=C2C(=O)Nc3ccc4ncsc4c32)cc1`, the inhibition in assay [1] is 2% and 6%; in assay [2] it was 89% and 88%.

For the compound `CCn1c(-c2nonc2N)nc2cncc(C(=O)NCCNC)c21`, the inhibition in assay [1] is 30%; in assay [2], 17% and 13%.

For `CC(=O)NCc1cccc(C#Cc2cncnc2Nc2ccc(OCc3cccc(F)c3)c(Cl)c2)c1`, the inhibition was 1% in assay [1]; -6% and -7% in assay [2].

As for `CCCN1CCCC(c2ccc(Nc3nc(Nc4cc(F)ccc4C(N)=O)c4cc[nH]c4n3)c(OC)c2)C1` (configuration not stated), the inhibition was -4% and -3% in assay [1]; 9% and 11% in assay [2].

With `COc1ccc(CNC(=O)c2ccc(-c3cc(-c4nnc(C)o4)ccc3C)cc2)cc1`, the inhibition in assay [1] was 3% and 7%; in assay [2] it was -6% and -5%.

Take `CCN(CC)S(=O)(=O)c1ccc(OC)c(Nc2ncc(-c3ccccc3)o2)c1`: the inhibition is 1% in assay [1]; -2% and 2% in assay [2].

Consider `N#Cc1c(NC(=O)c2ccccc2F)sc2c1CCCC2`, for which the inhibition in assay [1] was -3%; in assay [2] it was 0% and 2%.

Consider `N#Cc1ccc2c(-c3ccnc(NC4CC4)n3)c(-c3ccc(F)cc3)nn2c1`, for which the inhibition in assay [1] is 1% and -2%; in assay [2] it was -1%.

Regarding `COc1ccc2cc(-c3c(-c4ccncc4)nc(-c4ccc(S(C)(=O)=O)cc4C)n3C)ccc2c1`, the inhibition was 5% in assay [1]; -4% and -1% in assay [2].

Turning to `Fc1ccc(-c2c(-c3ccncc3)nc3n2CCS3)cc1`, the inhibition in assay [1] was -4%; in assay [2] it was 2% and 3%.

For the compound `CCn1c(-c2nonc2N)nc2c(C#CC(C)(C)O)nc(CN3CCCC3)cc21`, the inhibition in assay [1] was -7% and 2%; in assay [2] it was 24% and 20%.

Turning to `COc1cccc(-n2ncc3c(N/N=C/c4ccc(C(=O)NCCN(C)C)cc4)ncnc32)c1`, the inhibition in assay [1] was 7% and 19%; in assay [2], 28% and 31%.

Take `COc1cccc(-n2ncc3c(N/N=C/c4ccncc4)ncnc32)c1`: the inhibition in assay [1] is 1% and 4%; in assay [2], 13% and 14%.

For `NS(=O)(=O)c1cccc(-c2cc3ccncc3cc2OCc2ccccc2)c1`, the inhibition in assay [1] was 2%; in assay [2], -7% and -1%.

`O=C1Nc2ccccc2/C1=C1\CCc2cc(O)ccc21`: the inhibition in assay [1] is 1% and 0%; in assay [2] it was 25% and 30%.

For the compound `ON=C1CCc2cc(-c3nc(C4CCNCC4)[nH]c3-c3ccncc3)ccc21`, the inhibition in assay [1] is -2% and -3%; in assay [2], 1%.

With `Nc1ccc(C#Cc2cncnc2Nc2ccc(OCc3cccc(F)c3)c(Cl)c2)cc1`, the inhibition in assay [1] was 2% and -8%; in assay [2], 1% and 2%.

`Cc1nnc(-c2ccc(C)c(-c3ccc(C(=O)NCc4ccc(Cl)cc4)cc3)c2)o1`: the inhibition in assay [1] is 2% and 4%; in assay [2] it was 3% and 4%.

In the case of `O=C1NC(=O)C(c2ccccc2Cl)=C1Nc1cccc(O)c1`, the inhibition in assay [1] is 1%; in assay [2] it was 9% and 7%.

For `Cc1cc(O)cc(C)c1/C=C/c1cncc(-c2nn[nH]n2)c1`, the inhibition in assay [1] was 4% and 5%; in assay [2] it was 3%.

Turning to `CNC(=O)c1cncc(/C=C/c2c(C)cccc2C)c1`, the inhibition in assay [1] is -6% and -4%; in assay [2] it was 3% and -1%.

As to `Cc1ccc(NC(=O)c2ccnc(N3CCCC3)c2)cc1-c1ccc(C(=O)NCC2CC2)cc1`, the inhibition is -8% in assay [1]; 33% and 39% in assay [2].

Consider `CC1=C(C(=O)Nc2cc(Cl)c3[nH]ncc3c2)C(c2ccc(C(F)(F)F)cc2)CC(=O)N1` (configuration not stated), for which the inhibition in assay [1] is 2%; in assay [2], -2% and 0%.

With `NS(=O)(=O)c1ccc(N/N=C2\C(=O)Nc3ccc(-c4cnco4)cc32)cc1`, the inhibition in assay [1] is -3%; in assay [2] it was 61% and 57%.

Take `COc1ccc(-c2nn3ncccc3c2-c2ccnc(Nc3ccc(Cl)c(C(F)(F)F)c3)n2)cc1`: the inhibition in assay [1] is -2% and 3%; in assay [2], -6% and -3%.

As to `COc1cc2ncn(-c3cc(OCCc4ccccc4)c(C(N)=O)s3)c2cc1OC`, the inhibition in assay [1] was -2%; in assay [2], 65% and 61%.

Regarding `c1ccc(-c2n[nH]cc2-c2ccnc(-c3ccc(OCCN4CCOCC4)cc3)c2)nc1`, the inhibition in assay [1] was 5% and 4%; in assay [2], -2% and -1%.

In the case of `CC1=C(C(=O)Nc2ccc3[nH]ncc3c2)C(c2ccc(F)cc2)NC(=O)N1` (configuration not stated), the inhibition in assay [1] is 4% and 5%; in assay [2], -2% and 0%.

For the compound `CN(C)CCOc1ccc(-c2cc(-c3ccc4c(c3)CCC4=NO)c(-c3ccncc3)o2)cc1`, the inhibition in assay [1] is 0%; in assay [2] it was 5% and 6%.

`Cc1cc(-c2ccccn2)cc(C)c1/C=C/c1cncc(-c2nn[nH]n2)c1`: the inhibition in assay [1] is 3% and 1%; in assay [2], -2% and -5%.

In the case of `CCN(CC)Cc1ccc(Nc2nccc(-c3cnn4ncccc34)n2)cc1`, the inhibition in assay [1] is -1% and -2%; in assay [2], 10% and 14%.

In the case of `CNC(=O)Oc1cc(C)c(/C=C/c2cncc(C(=O)NC)c2)c(C)c1`, the inhibition in assay [1] is -3% and 5%; in assay [2] it was -1%.

As for `COc1cc(N2CCN(C(C)C)CC2)ccc1Nc1nc(Nc2cccc(F)c2C(=O)O)c2cc[nH]c2n1`, the inhibition in assay [1] is 2% and 3%; in assay [2], -3% and 0%.

`Fc1ccc(-c2ncn(C3CCNCC3)c2-c2ccnc(Oc3ccc(F)c(F)c3)n2)cc1`: the inhibition in assay [1] is 18% and 0%; in assay [2], 2% and 0%.

Turning to `Cc1ccc(Nc2ccnc(Nc3cccc(C(N)=O)c3)n2)cc1O`, the inhibition worked out at 2% in assay [1] and 27% in assay [2].

`NC(=O)c1ccc2c(-c3ccnc(NCCCO)n3)c(-c3ccc(F)cc3)nn2c1`: the inhibition in assay [1] was 1%; in assay [2] it was 3% and 1%.

In the case of `COc1ccc2c(-c3ccnc(Nc4cccc(OC(F)(F)F)c4)n3)cnn2n1`, the inhibition in assay [1] is 2% and 1%; in assay [2] it was 49%.

`CCS(=O)(=O)c1ccc(OC)c(Nc2ncc(-c3ccccc3Cl)o2)c1`: the inhibition in assay [1] was -3% and 4%; in assay [2], 2% and 6%.
